Experiments:
human TLR8 = target: T1, human TLR8 (Homo sapiens, UniProt Q9NR97); test: TLR8 inhibition reporter assay (HEK-Blue SEAP); assay type: cell-based; conditions: HEK-Blue cells overexpressing human TLR8, R848 15.9 μM, 22 hour incubation
T1 construct: host or cells: HEK-Blue cells
T1 sequence (Q9NR97 27-1041): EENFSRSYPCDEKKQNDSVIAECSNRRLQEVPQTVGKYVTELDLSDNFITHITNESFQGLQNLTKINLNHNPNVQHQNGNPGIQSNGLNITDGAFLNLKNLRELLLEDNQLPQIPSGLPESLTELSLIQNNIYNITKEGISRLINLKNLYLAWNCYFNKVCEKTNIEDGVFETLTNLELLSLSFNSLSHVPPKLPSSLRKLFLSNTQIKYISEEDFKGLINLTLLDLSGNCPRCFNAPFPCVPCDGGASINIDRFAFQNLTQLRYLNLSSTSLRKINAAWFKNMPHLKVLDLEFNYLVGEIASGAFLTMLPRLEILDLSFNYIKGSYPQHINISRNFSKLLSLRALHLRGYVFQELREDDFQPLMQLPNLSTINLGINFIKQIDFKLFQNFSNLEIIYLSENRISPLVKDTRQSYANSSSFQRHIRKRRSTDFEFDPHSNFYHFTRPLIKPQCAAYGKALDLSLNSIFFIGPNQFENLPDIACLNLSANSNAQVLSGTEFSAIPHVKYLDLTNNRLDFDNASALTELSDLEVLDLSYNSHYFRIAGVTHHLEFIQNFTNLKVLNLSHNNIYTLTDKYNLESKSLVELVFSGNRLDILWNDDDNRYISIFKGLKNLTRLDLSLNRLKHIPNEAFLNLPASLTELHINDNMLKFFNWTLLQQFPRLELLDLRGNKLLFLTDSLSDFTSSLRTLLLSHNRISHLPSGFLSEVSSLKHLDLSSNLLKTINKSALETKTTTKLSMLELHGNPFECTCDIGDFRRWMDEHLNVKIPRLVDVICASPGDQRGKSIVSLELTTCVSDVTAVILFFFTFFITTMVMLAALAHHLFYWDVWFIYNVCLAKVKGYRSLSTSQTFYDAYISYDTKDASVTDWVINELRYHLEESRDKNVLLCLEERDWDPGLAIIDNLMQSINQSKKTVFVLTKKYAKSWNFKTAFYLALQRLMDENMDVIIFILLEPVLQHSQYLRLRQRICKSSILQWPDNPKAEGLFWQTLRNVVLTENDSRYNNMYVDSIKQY
How it was run: (§1)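 Compound treatment: 30 min, RT, 0.05 nM–50 μM final. Agonist: TLR7 gardiquimod 7.5 μM; TLR8 R848 15.9 μM; TLR9 ODN2006 5 nM. Incubation 22 h, 37 °C, 5% CO2. Readout SEAP, HEK-Blue Detection.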

human TLR9 = target: T2, human TLR9 (Homo sapiens, UniProt Q9NR96); test: TLR9 inhibition reporter assay (HEK-Blue SEAP); assay type: cell-based; conditions: HEK-Blue cells overexpressing human TLR9, ODN2006 5 nM, 22 hour incubation
T2 construct: host or cells: HEK-Blue cells
T2 sequence (Q9NR96 26-1032): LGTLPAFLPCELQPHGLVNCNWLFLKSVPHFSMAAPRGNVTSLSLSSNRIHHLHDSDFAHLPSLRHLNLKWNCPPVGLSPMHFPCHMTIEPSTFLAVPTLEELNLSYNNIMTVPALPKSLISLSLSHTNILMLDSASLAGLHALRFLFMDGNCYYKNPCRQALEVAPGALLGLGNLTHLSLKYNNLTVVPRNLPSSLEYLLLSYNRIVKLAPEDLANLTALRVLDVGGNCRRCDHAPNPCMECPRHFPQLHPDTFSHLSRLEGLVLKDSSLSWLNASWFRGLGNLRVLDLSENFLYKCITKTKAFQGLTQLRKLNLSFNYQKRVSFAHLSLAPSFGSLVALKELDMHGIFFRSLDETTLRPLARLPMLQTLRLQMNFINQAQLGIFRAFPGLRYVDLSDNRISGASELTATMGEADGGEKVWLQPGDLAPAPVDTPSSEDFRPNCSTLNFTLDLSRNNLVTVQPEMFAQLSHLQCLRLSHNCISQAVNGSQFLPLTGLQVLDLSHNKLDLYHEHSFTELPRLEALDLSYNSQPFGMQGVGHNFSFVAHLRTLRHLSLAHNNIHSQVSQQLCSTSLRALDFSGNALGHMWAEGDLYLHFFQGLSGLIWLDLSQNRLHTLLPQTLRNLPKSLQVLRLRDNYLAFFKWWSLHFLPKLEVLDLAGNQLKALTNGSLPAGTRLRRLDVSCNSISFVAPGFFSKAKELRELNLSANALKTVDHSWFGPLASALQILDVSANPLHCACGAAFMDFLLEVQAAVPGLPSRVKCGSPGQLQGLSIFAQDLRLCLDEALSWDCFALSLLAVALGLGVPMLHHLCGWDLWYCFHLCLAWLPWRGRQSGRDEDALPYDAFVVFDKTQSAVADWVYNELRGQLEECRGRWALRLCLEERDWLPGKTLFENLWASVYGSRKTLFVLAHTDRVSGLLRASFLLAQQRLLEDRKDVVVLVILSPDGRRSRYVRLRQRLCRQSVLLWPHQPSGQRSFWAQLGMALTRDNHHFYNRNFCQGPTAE
How it was run: as §1

SMILES: COc1cc(-c2cc3[nH]c(=O)n([C@@H]4CCCN(C5CCCOC5)C4)c3cc2C(C)C)cn2ncnc12 (single isomer, unassigned) [Example 218]
- IC50 (human TLR8): 5.19 nM
- IC50 (human TLR9): 24200 nM

SMILES: COc1cc(-c2cc3[nH]c(=O)n([C@@H]4CCCN(C5CCCOC5)C4)c3cc2C(C)C)cn2ncnc12 (single isomer, unassigned) [Example 219]
- IC50 (human TLR8): 0.15 nM
- IC50 (human TLR9): 25100 nM

SMILES: COCCN1CCC[C@@H](n2c(=O)[nH]c3cc(-c4cc(OC)c5ncnn5c4)c(C(C)C)cc32)C1 (single isomer, unassigned) [Example 225]
- IC50 (human TLR8): 3.37 nM
- IC50 (human TLR9): 33800 nM

SMILES: COc1c(C)c(-c2cc3[nH]c(=O)n(C4CCC(N5CCC(F)(F)CC5)CC4)c3cc2C(C)C)cn2ncnc12 (single isomer, unassigned) [Example 229, 1-(4-(4,4-difluoropiperidin-1-yl)cyclohexyl)-6-isopropyl-5-(8-methoxy-7-methyl-[1,2,4]triazolo[1,5-a]pyridin-6-yl)-1,3-dihydro-2H-benzo[d]imidazol-2-one]
- IC50 (human TLR8): 2.18 nM
- IC50 (human TLR9): 30000 nM

SMILES: COc1c(C)c(-c2cc3[nH]c(=O)n(C4CCC(N5CCC(F)(F)CC5)CC4)c3cc2C(C)C)cn2ncnc12 (single isomer, unassigned) [Example 230, 1-(4-(4,4-difluoropiperidin-1-yl)cyclohexyl)-6-isopropyl-5-(8-methoxy-7-methyl-[1,2,4]triazolo[1,5-a]pyridin-6-yl)-1,3-dihydro-2H-benzo[d]imidazol-2-one]
- IC50 (human TLR8): 5.49 nM
- IC50 (human TLR9): > 50000 nM

SMILES: COc1cc(-c2cc3[nH]c(=O)n(C4CCC(N5CCNC(=O)C5)CC4)c3cc2C(C)C)cn2ncnc12 (single isomer, unassigned) [Example 233, 6-isopropyl-5-(8-methoxy-[1,2,4]triazolo[1,5-a]pyridin-6-yl)-1-(4-(3-oxopiperazin-1-yl)cyclohexyl)-1,3-dihydro-2H-benzo[d]imidazol-2-one]
- IC50 (human TLR8): 1.9 nM
- IC50 (human TLR9): > 50000 nM

SMILES: COc1cc(-c2cc3[nH]c(=O)n(C4CCC(N5CCNC(=O)C5)CC4)c3cc2C(C)C)cn2ncnc12 (single isomer, unassigned) [Example 234, 6-isopropyl-5-(8-methoxy-[1,2,4]triazolo[1,5-a]pyridin-6-yl)-1-(4-(3-oxopiperazin-1-yl)cyclohexyl)-1,3-dihydro-2H-benzo[d]imidazol-2-one]
- IC50 (human TLR8): 10.5 nM
- IC50 (human TLR9): > 50000 nM

SMILES: COc1cc(-c2cc3[nH]c(=O)n(C4CCC(N5CC6(CCOCC6)C5)CC4)c3cc2C(C)C)cn2ncnc12 (single isomer, unassigned) [Example 235, 1-(4-(7-oxa-2-azaspiro[3.5]nonan-2-yl)cyclohexyl)-6-isopropyl-5-(8-methoxy-[1,2,4]triazolo[1,5-a]pyridin-6-yl)-1,3-dihydro-2H-benzo[d]imidazol-2-one]
- IC50 (human TLR8): 0.39 nM
- IC50 (human TLR9): 11200 nM

SMILES: COc1cc(-c2cc3[nH]c(=O)n(C4CCC(N5CC6(CCOCC6)C5)CC4)c3cc2C(C)C)cn2ncnc12 (single isomer, unassigned) [Example 236, 1-(4-(7-oxa-2-azaspiro[3.5]nonan-2-yl)cyclohexyl)-6-isopropyl-5-(8-methoxy-[1,2,4]triazolo[1,5-a]pyridin-6-yl)-1,3-dihydro-2H-benzo[d]imidazol-2-one]
- IC50 (human TLR8): 0.35 nM
- IC50 (human TLR9): 2590 nM

SMILES: COc1cc(-c2cc3[nH]c(=O)n(C4CCC(N5CC(O)(C(F)(F)F)C5)CC4)c3cc2C(C)C)cn2ncnc12 (single isomer, unassigned) [Example 241, 1-(4-(3-hydroxy-3-(trifluoromethyl)azetidin-1-yl)cyclohexyl)-6-isopropyl-5-(8-methoxy-[1,2,4]triazolo[1,5-a]pyridin-6-yl)-1,3-dihydro-2H-benzo[d]imidazol-2-one]
- IC50 (human TLR8): 0.49 nM
- IC50 (human TLR9): > 50000 nM

SMILES: COc1cc(-c2cc3[nH]c(=O)n(C4CCC(N5CC(O)(C(F)(F)F)C5)CC4)c3cc2C(C)C)cn2ncnc12 (single isomer, unassigned) [Example 242, 1-(4-(3-hydroxy-3-(trifluoromethyl)azetidin-1-yl)cyclohexyl)-6-isopropyl-5-(8-methoxy-[1,2,4]triazolo[1,5-a]pyridin-6-yl)-1,3-dihydro-2H-benzo[d]imidazol-2-one]
- IC50 (human TLR8): 1.12 nM
- IC50 (human TLR9): 23700 nM

SMILES: Cc1cc2c(cc1-c1cc(C)c3ncnn3c1)[nH]c(=O)n2[C@H]1CCCN(C)C1 [Example 11, (S)-6-methyl-5-(8-methyl-[1,2,4]triazolo[1,5-a]pyridin-6-yl)-1-(1-methylpiperidin-3-yl)-1,3-dihydro-2H-benzo[d]imidazol-2-one]
- IC50 (human TLR8): 143 nM
- IC50 (human TLR9): 9550 nM

SMILES: CCN1CCC[C@H](n2c(=O)[nH]c3cc(-c4cc(C)c5ncnn5c4)c(C)cc32)C1 [Example 12, (S)-1-(1-ethylpiperidin-3-yl)-6-methyl-5-(8-methyl-[1,2,4]triazolo[1,5-a]pyridin-6-yl)-1,3-dihydro-2H-benzo[d]imidazol-2-one]
- IC50 (human TLR8): 92.5 nM
- IC50 (human TLR9): 7640 nM

SMILES: Cc1cc2c(cc1-c1cc(C)c3ncnn3c1)[nH]c(=O)n2[C@H]1CCCN(C(C)C)C1 [Example 13, (S)-1-(1-isopropylpiperidin-3-yl)-6-methyl-5-(8-methyl-[1,2,4]triazolo[1,5-a]pyridin-6-yl)-1,3-dihydro-2H-benzo[d]imidazol-2-one]
- IC50 (human TLR8): 62.9 nM
- IC50 (human TLR9): 4420 nM

SMILES: Cc1cc2c(cc1-c1cc(C)c3ncnn3c1)[nH]c(=O)n2[C@H]1CCCN(C2COC2)C1 [Example 14, (S)-6-methyl-5-(8-methyl-[1,2,4]triazolo[1,5-a]pyridin-6-yl)-1-(1-(oxetan-3-yl)piperidin-3-yl)-1,3-dihydro-2H-benzo[d]imidazol-2-one]
- IC50 (human TLR8): 155 nM
- IC50 (human TLR9): > 50000 nM

SMILES: Cc1cc2c(cc1-c1cc(C)c3ncnn3c1)[nH]c(=O)n2[C@@H]1CCCN(C)C1 [Example 15, (R)-6-methyl-5-(8-methyl-[1,2,4]triazolo[1,5-a]pyridin-6-yl)-1-(1-methylpiperidin-3-yl)-1,3-dihydro-2H-benzo[d]imidazol-2-one]
- IC50 (human TLR8): 22.9 nM
- IC50 (human TLR9): 5940 nM

SMILES: CCN1CCC[C@@H](n2c(=O)[nH]c3cc(-c4cc(C)c5ncnn5c4)c(C)cc32)C1 [Example 16, (R)-1-(1-ethylpiperidin-3-yl)-6-methyl-5-(8-methyl-[1,2,4]triazolo[1,5-a]pyridin-6-yl)-1,3-dihydro-2H-benzo[d]imidazol-2-one]
- IC50 (human TLR8): 31.4 nM
- IC50 (human TLR9): 8950 nM

SMILES: Cc1cc2c(cc1-c1cc(C)c3ncnn3c1)[nH]c(=O)n2[C@@H]1CCCN(C(C)C)C1 [Example 17, (R)-1-(1-isopropylpiperidin-3-yl)-6-methyl-5-(8-methyl-[1,2,4]triazolo[1,5-a]pyridin-6-yl)-1,3-dihydro-2H-benzo[d]imidazol-2-one]
- IC50 (human TLR8): 14.5 nM
- IC50 (human TLR9): 5690 nM

— patent US12187723B2 (BRISTOL-MYERS SQUIBB COMPANY, priority 2019, dated 2025)
